17 compounds from US10793568B2, “Hormone receptor modulators for treating metabolic conditions and disorders” (ARDELYX, INC., priority 2016, dated 2020) can be followed below.

Test [1] deals with human Farnesoid X receptor ligand-binding domain/Gal4 DNA binding domain chimera (Homo sapiens (Human), UniProt Q96RI1). Put plainly: Cell-based assay of FXR activation (FXR-UAS-bla HEK 293T beta-lactamase reporter). As to conditions: cellular FXR beta-lactamase reporter assay; for Emax: HEK-293T, extent of activation relative to GW4064, read-out: % Efficacy; for EC50: FXR-UAS-bla HEK 293T cells, 16 h, pEC50 = -log EC50. Summed up: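 Readout is cleavage of the CCF4 FRET substrate (409 nm excitation, blue 447 nm signal) by beta-lactamase, expressed under UAS control after a Gal4–human FXR LBD chimera is activated in HEK 293T cells. Compounds were added as 3-fold dilutions for 16 h at 37 °C in 2% charcoal-stripped FBS medium. Curves were fit to a 3-parameter logistic equation to give pEC50, with % activation relative to GW4064.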
In general terms: Reporter assays use an easily measured gene product as a stand-in for the process of interest.

For test [2], the target named is ligand binding domain of human FXR (Homo sapiens (Human), UniProt Q96RI1). Put plainly: FXR ligand binding assay (LanthaScreen TR-FRET, SRC2-2 peptide recruitment). As to conditions: for pEC50: -log EC50, concentration required to produce 50% activation; for Emax: read-out: % Efficacy. On the technique in general: In TR-FRET formats the signal depends on donor and acceptor labels being close together.

The mark [3] stands for this setting: extent of activation relative to GW4064.

Where two headings read alike, the source gives them in different places. Where only a bound is given, the exact number is not on record here.

As usually defined, the EC50 is the midpoint of the concentration-response curve. Broadly, the pEC50 is the negative decadic logarithm of the EC50, by convention in mol/L. Read a low pEC50 as a high EC50.

Chain of human Farnesoid X receptor ligand-binding domain/Gal4 DNA binding domain chimera (Q96RI1 262-486, change not shown): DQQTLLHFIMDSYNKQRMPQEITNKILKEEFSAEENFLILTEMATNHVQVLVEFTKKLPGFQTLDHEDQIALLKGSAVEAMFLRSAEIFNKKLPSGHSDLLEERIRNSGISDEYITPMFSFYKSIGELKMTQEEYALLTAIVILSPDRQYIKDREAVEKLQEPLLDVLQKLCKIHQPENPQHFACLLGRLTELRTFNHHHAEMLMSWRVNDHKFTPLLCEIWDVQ
Chain of human Farnesoid X receptor ligand-binding domain/Gal4 DNA binding domain chimera (P04386 1-147 partner): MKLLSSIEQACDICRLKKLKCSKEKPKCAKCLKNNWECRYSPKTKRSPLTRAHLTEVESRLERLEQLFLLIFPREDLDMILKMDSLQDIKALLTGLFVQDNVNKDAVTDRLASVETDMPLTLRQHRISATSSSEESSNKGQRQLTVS
Chain of ligand binding domain of human FXR (Q96RI1 262-486): as the sequence (Q96RI1 262-486, change not shown) above

`O=C(O)c1cc(F)c2nc(N3C[C@@H]4C[C@H]3C[C@@H]4OCc3c(-c4c(Cl)cccc4Cl)noc3C3CC3)sc2c1` [Compound I-37, 2-[(1S,4S,5S)-5-{[5-cyclopropyl-3-(2,6-dichlorophenyl)-1,2-oxazol-4-yl]methoxy}-2-azabicyclo[2.2.1]heptan-2-yl]-4-fluoro-1,3-benzothiazole-6-carboxylic Acid]: in test [1], the Emax was found to be 82% and the EC50 is 1580 nM. The pEC50 in test [2] was above 4.5. For the same compound, the Emax in test [2] (setting [3]) amounted to 0%.
Consider `O=C(O)c1cc(OC(F)(F)F)c2nc(N3C[C@@H]4C[C@H]3C[C@H]4OCc3c(C4CCOCC4)noc3C3CC3)sc2c1` [Compound I-23, 2-[(1S,4S,5R)-5-{[5-cyclopropyl-3-(oxan-4-yl)-1,2-oxazol-4-yl]methoxy}-2-azabicyclo[2.2.1]heptan-2-yl]-4-(trifluoromethoxy)-1,3-benzothiazole-6-carboxylic Acid], for which, in test [1], the Emax was 100% and the EC50 is 631 nM. In test [2], this compound came in with a pEC50 of 5.5. In test [2] (setting [3]), the Emax was 85%.
As for `O=C(NS(=O)(=O)C1CC1)c1ccc(N2C[C@@H]3C[C@H]2C[C@H]3OCc2c(-c3c(Cl)cccc3Cl)noc2C2(F)CC2)nc1` [Compound I-209, N-(cyclopropanesulfonyl)-6-[(1S,4S,5R)-5-{[3-(2,6-dichlorophenyl)-5-(1-fluorocyclopropyl)-1,2-oxazol-4-yl]methoxy}-2-azabicyclo[2.2.1]heptan-2-yl]pyridine-3-carboxamide], in test [1], the Emax is 104% and the EC50 is 15.8 nM. The compound further displayed a negative logarithm of the EC50 (pEC50) in test [2] of 7.8. Also, the Emax in test [2] (setting [3]) turned out to be 160%.
On to `CC1(C)CC(S(=O)(=O)NC(=O)c2ccc(N3C(=O)[C@@H]4C[C@H]3C[C@H]4OCc3c(-c4c(Cl)cccc4Cl)noc3C3CC3)cc2F)CCO1` (stereo partly drawn) [Compound I-330, 4-[(1S,4R,5R)-5-{[5-cyclopropyl-3-(2,6-dichlorophenyl)-1,2-oxazol-4-yl]methoxy}-3-oxo-2-azabicyclo[2.2.1]heptan-2-yl]-N-[(2,2-dimethyloxan-4-yl)sulfonyl]-2-fluorobenzamide], for which, in test [1], the Emax came to 120% and the EC50 was 0.158 nM. The compound also displayed a pEC50 in test [2] of 8.8. For the same compound, the Emax in test [2] (setting [3]) was determined as 156%.
In the case of `CC(O)CCS(=O)(=O)NC(=O)c1ccc(N2C[C@@H]3C[C@H]2C[C@H]3OCc2c(-c3c(Cl)cccc3Cl)noc2C2CC2)cc1` (stereo partly drawn) [Compound I-217, 4-[(1S,4S,5R)-5-{[5-cyclopropyl-3-(2,6-dichlorophenyl)-1,2-oxazol-4-yl]methoxy}-2-azabicyclo[2.2.1]heptan-2-yl]-N-(3-hydroxybutanesulfonyl)benzamide], in test [1], the Emax is 111% and the midpoint of the response, the EC50, lay at 1 nM. Besides, in test [2], the pEC50 is reported as 9.9 and the Emax was 142%.
As to `O=C(O)c1ccc(N2C(=O)[C@@H]3C[C@H]2C[C@H]3OCc2c(-c3c(F)cccc3C3CC3)noc2C2CC2)cc1` [Compound I-311, 4-[(1S,4R,5R)-5-{[5-cyclopropyl-3-(2-cyclopropyl-6-fluorophenyl)-1,2-oxazol-4-yl]methoxy}-3-oxo-2-azabicyclo[2.2.1]heptan-2-yl]benzoic Acid], in test [1], the Emax is 105% and the EC50 was 3.98 nM. This compound also returned a pEC50 in test [2] of 7.8. Further, the Emax in test [2] (setting [3]) worked out at 148%.
On to `O=C(O)c1cc(F)c2nc(N3C[C@@H]4C[C@H]3C[C@H]4OC(=O)c3c(-c4c(Cl)cccc4Cl)noc3C3CC3)sc2c1` [Compound I-1, 2-[(1S,4S,5R)-5-[5-cyclopropyl-3-(2,6-dichlorophenyl)-1,2-oxazole-4-carbonyloxy]-2-azabicyclo[2.2.1]heptan-2-yl]-4-fluoro-1,3-benzothiazole-6-carboxylic Acid], for which, in test [1], the Emax was 126% and a half-maximal effect (EC50) was put at 10 nM. Besides, the pEC50 in test [2] is given as 7.4. Moreover, the Emax in test [2] (setting [3]) amounted to 148%.
Consider `Cc1cc(C(=O)NCCP(=O)(OCOC(=O)C(C)(C)C)OCOC(=O)C(C)(C)C)ccc1N1C[C@@H]2C[C@H]1C[C@H]2OCc1c(-c2c(Cl)cccc2Cl)noc1C1CC1` [Compound I-174, ({[2-({4-[(1S,4S,5R)-5-{[5-cyclopropyl-3-(2,6-dichlorophenyl)-1,2-oxazol-4-yl]methoxy}-2-azabicyclo[2.2.1]heptan-2-yl]-3-methylphenyl}formamido)ethyl]({[(2,2-dimethylpropanoyl)oxy]methoxy})phosphoryl}oxy)methyl 2,2-dimethylpropanoate], for which the Emax in test [1] is 152%; in test [2] (setting [3]) it was 161%. Besides, in test [1], the EC50 was 251 nM. The compound further gave a pEC50 in test [2] of 8.8.
As to `Cc1cccc(Cl)c1-c1noc(C2CC2)c1CO[C@@H]1C[C@@H]2C[C@H]1CN2c1ccc(C(=O)NS(=O)(=O)C2CCOCC2)cc1` [Compound I-203, 4-((1S,4S,5R)-5-((3-(2-chloro-6-methylphenyl)-5-cyclopropylisoxazol-4-yl)methoxy)-2-azabicyclo[2.2.1]heptan-2-yl)-N-((tetrahydro-2H-pyran-4-yl)sulfonyl)benzamide], the Emax was found to be 102% in test [1] and 157% in test [2] (setting [3]). In test [1], this compound had an EC50 of 0.158 nM. This compound yielded a pEC50 in test [2] of 9.
Regarding `O=C(NS(=O)(=O)C1CC1)c1ccc(N2C[C@@H]3C[C@H]2C[C@H]3OCc2c(-c3c(Cl)cccc3Cl)noc2C2(F)CC2)c(F)c1` [Compound I-197, N-(cyclopropylsulfonyl)-4-((1S,4S,5R)-5-((3-(2,6-dichlorophenyl)-5-(1-fluorocyclopropyl)isoxazol-4-yl)methoxy)-2-azabicyclo[2.2.1]heptan-2-yl)-3-fluorobenzamide], in test [1], the Emax amounted to 111% and the EC50 was 0.501 nM. Further, in test [2], the pEC50 came out at 8.5. The Emax in test [2] (setting [3]) is 167%.
`CCc1cc(N2C(=O)[C@@H]3C[C@H]2C[C@H]3OCc2c(-c3c(Cl)cccc3Cl)noc2C2CC2)ccc1C(=O)O` [Compound I-318, 4-[(1S,4R,5R)-5-{[5-cyclopropyl-3-(2,6-dichlorophenyl)-1,2-oxazol-4-yl]methoxy}-3-oxo-2-azabicyclo[2.2.1]heptan-2-yl]-2-ethylbenzoic Acid]: in test [1], the Emax amounted to 116% and the EC50 is 6.31 nM. The same compound had a pEC50 in test [2] of 7.2. Moreover, the Emax in test [2] (setting [3]) turned out to be 127%.
As to `O=C(O)CCCc1ccc(N2C[C@@H]3C[C@H]2C[C@H]3OCc2c(-c3c(Cl)cccc3Cl)noc2C2CC2)c(F)c1` [Compound I-157, 4-{4-[(1S,4S,5R)-5-{[5-cyclopropyl-3-(2,6-dichlorophenyl)-1,2-oxazol-4-yl]methoxy}-2-azabicyclo[2.2.1]heptan-2-yl]-3-fluorophenyl}butanoic Acid], in test [1], the Emax turned out to be 100% and the EC50 is 2.51 nM. This compound also yielded a pEC50 in test [2] of 8.2. Besides, in test [2] (setting [3]), the Emax was 134%.
With `O=C(NCCS(=O)(=O)O)c1ccc(N2C(=O)[C@@H]3C[C@H]2C[C@H]3OCc2c(-c3c(Cl)cccc3Cl)noc2C2CC2)cc1` [Compound I-359, 2-({4-[(1S,4R,5R)-5-{[5-cyclopropyl-3-(2,6-dichlorophenyl)-1,2-oxazol-4-yl]methoxy}-3-oxo-2-azabicyclo[2.2.1]heptan-2-yl]phenyl}formamido)ethane-1-sulfonic Acid], in test [1], the Emax amounted to 126% and the EC50 was 398 nM. In test [2], the pEC50 is recorded as 8.4. Besides, the Emax in test [2] (setting [3]) was 148%.
For `O=C(O)c1ccc(N2C[C@@H]3C[C@H]2C[C@H]3OCc2c(-c3ccccc3C(F)(F)F)noc2C2CC2)c(F)c1` [Compound I-121, 4-[(1S,4S,5R)-5-({5-cyclopropyl-3-[2-(trifluoromethyl)phenyl]-1,2-oxazol-4-yl}methoxy)-2-azabicyclo[2.2.1]heptan-2-yl]-3-fluorobenzoic Acid], in test [1], the Emax came out at 107% and the EC50 is 1.26 nM. In test [2] (setting [3]), the Emax was 174%.
Consider `O=C(O)CCc1ccc(N2C(=O)[C@@H]3C[C@H]2C[C@H]3OCc2c(-c3c(Cl)cccc3Cl)noc2C2CC2)cc1F` [Compound I-305, 3-{4-[(1S,4R,5R)-5-{[5-cyclopropyl-3-(2,6-dichlorophenyl)-1,2-oxazol-4-yl]methoxy}-3-oxo-2-azabicyclo[2.2.1]heptan-2-yl]-2-fluorophenyl}propanoic Acid], for which, in test [1], the Emax was 98% and the EC50 was 3.16 nM. Also, the negative logarithm of the EC50 (pEC50) in test [2] stood at 7.5. Moreover, in test [2] (setting [3]), the Emax came out at 121%.
In the case of `Cc1cccc(Cl)c1-c1noc(C2CC2)c1CO[C@@H]1C[C@@H]2C[C@H]1CN2c1ccc(CCC(=O)NS(C)(=O)=O)cc1F` [Compound I-241, 3-(4-((1S,4S,5R)-5-((3-(2-chloro-6-methylphenyl)-5-cyclopropylisoxazol-4-yl)methoxy)-2-azabicyclo[2.2.1]heptan-2-yl)-3-fluorophenyl)-N-(methylsulfonyl)propanamide], the Emax in test [1] is 98%; in test [2] (setting [3]), 176%. Further, a half-maximal response in test [1] (EC50) required 10 nM. The same compound had a pEC50 in test [2] of 8.
For `Cc1cc(C(=O)O)cc2sc(N3C[C@@H]4C[C@H]3C[C@H]4OCc3c(-c4c(Cl)cccc4Cl)noc3C3CC3)nc12` [Compound I-13, 2-[(1S,4S,5R)-5-{[5-cyclopropyl-3-(2,6-dichlorophenyl)-1,2-oxazol-4-yl]methoxy}-2-azabicyclo[2.2.1]heptan-2-yl]-4-methyl-1,3-benzothiazole-6-carboxylic acid], in test [1], the Emax was found to be 116% and the EC50 was 0.158 nM. In test [2], the pEC50 was found to be 8.6. Besides, the Emax in test [2] (setting [3]) came to 174%.
